Values quoted from earlier work in patent publication US6821972B2, “3-heterocyclylpropanohydroxamic acid PCP inhibitors” (Pfizer Inc., priority 2001, dated 2004).
Non-standard residues stand in square brackets, D forms with d. Residues, ends and D or L forms follow the SMILES beside them. *: point of attachment. Sta = CC(C)C[C@H](N)[C@@H](O)CC(=O)O; Isovaleryl = CC(C)CC(=O)*

What was measured:
[1] = test system: endothelial cell invasion of basement membrane
keratinocyte migration = conditions: collagen type I matrix, in vitro

CNC(=O)[C@H](Cc1ccccc1)NC(=O)[C@H](CC(C)C)[C@H](CSc1cccs1)C(=O)NO [BB94, (2S,3R)-5-methyl-3-{[(1S)-1-(methylcarbamoyl)-2-phenylethyl]carbamoyl}-2-[(2-thienylthio)methyl]hexanohydroxamic acid]
inhibition of endothelial cell invasion [1]: inhibits endothelial cell invasion of basement membrane

Tris-HCl
inhibition of PCP activity by buffer (PCP; 0.2-0.5M): markedly inhibited activity

CNC(=O)[C@H](Cc1ccc(OC)cc1)NC(=O)[C@@H](CC(=O)NO)CC(C)C [SC44463]
inhibition of keratinocyte migration (keratinocyte migration): completely inhibited

CC(C)C[C@H](NC(=O)[C@@H](NC(=O)N[C@@H](Cc1ccccc1)C(=O)O)[C@@H]1CCN=C(N)N1)C(=O)N[C@H](C=O)Cc1ccccc1 [chymostatin, reference compound]
inhibition of PCP (in words) (PCP): relatively strong inhibitors

phosphate
inhibitory to PCP at concentrations of 1-10 mM (PCP): inhibitory

N.N.O=S(=O)(O)O [ammonium sulfate]
inhibitory to PCP at concentrations of 1-10 mM (PCP): inhibitory

O[C@H](CS)[C@H](O)CS (racemic) [Dithiothreitol, reference compound]
inhibitory to PCP at low concentrations (PCP): inhibitory at low concentrations

concanavalin A
inhibitory to PCP at low concentrations (PCP): inhibitory at low concentrations

NCCCC[C@H](N)C(=O)O [lysine]
inhibition of PCP (in words) (PCP): inhibited

CCCCCCCCCCCCOS(=O)(=O)[O-].[Na+] [SDS, reference compound]
inhibitory to PCP at low concentrations (PCP): inhibitory at low concentrations

N=C(N)NCCC[C@H](N)C(=O)O [arginine]
inhibition of PCP (in words) (PCP): inhibited

CC(C)CC(=O)N[C@H](C(=O)N[C@H](C(=O)N[C@@H](CC(C)C)[C@@H](O)CC(=O)N[C@@H](C)C(=O)N[C@@H](CC(C)C)[C@@H](O)CC(=O)O)C(C)C)C(C)C [pepstatin A, reference compound] (Isovaleryl-VV[Sta]A[Sta]-OH)
inhibition of PCP (in words) (PCP): relatively strong inhibitors

B1: α2-Macroglobulin: "α2-Macroglobulin, ovostatin, and fetal bovine serum appear to at least partially inhibit PCP activity" (protein, UniProt P01023 24-1474, looked up)
Alpha-2-macroglobulin: SVSGKPQYMVLVPSLLHTETTEKGCVLLSYLNETVTVSASLESVRGNRSLFTDLEAENDVLHCVAFAVPKSSSNEEVMFLTVQVKGPTQEFKKRTTVMVKNEDSLVFVQTDKSIYKPGQTVKFRVVSMDENFHPLNELIPLVYIQDPKGNRIAQWQSFQLEGGLKQFSFPLSSEPFQGSYKVVVQKKSGGRTEHPFTVEEFVLPKFEVQVTVPKIITILEEEMNVSVCGLYTYGKPVPGHVTVSICRKYSDASDCHGEDSQAFCEKFSGQLNSHGCFYQQVKTKVFQLKRKEYEMKLHTEAQIQEEGTVVELTGRQSSEITRTITKLSFVKVDSHFRQGIPFFGQVRLVDGKGVPIPNKVIFIRGNEANYYSNATTDEHGLVQFSINTTNVMGTSLTVRVNYKDRSPCYGYQWVSEEHEEAHHTAYLVFSPSKSFVHLEPMSHELPCGHTQTVQAHYILNGGTLLGLKKLSFYYLIMAKGGIVRTGTHGLLVKQEDMKGHFSISIPVKSDIAPVARLLIYAVLPTGDVIGDSAKYDVENCLANKVDLSFSPSQSLPASHAHLRVTAAPQSVCALRAVDQSVLLMKPDAELSASSVYNLLPEKDLTGFPGPLNDQDNEDCINRHNVYINGITYTPVSSTNEKDMYSFLEDMGLKAFTNSKIRKPKMCPQLQQYEMHGPEGLRVGFYESDVMGRGHARLVHVEEPHTETVRKYFPETWIWDLVVVNSAGVAEVGVTVPDTITEWKAGAFCLSEDAGLGISSTASLRAFQPFFVELTMPYSVIRGEAFTLKATVLNYLPKCIRVSVQLEASPAFLAVPVEKEQAPHCICANGRQTVSWAVTPKSLGNVNFTVSAEALESQELCGTEVPSVPEHGRKDTVIKPLLVEPEGLEKETTFNSLLCPSGGEVSEELSLKLPPNVVEESARASVSVLGDILGSAMQNTQNLLQMPYGCGEQNMVLFAPNIYVLDYLNETQQLTPEIKSKAIGYLNTGYQRQLNYKHYDGSYSTFGERYGRNQGNTWLTAFVLKTFAQARAYIFIDEAHITQALIWLSQRQKDNGCFRSSGSLLNNAIKGGVEDEVTLSAYITIALLEIPLTVTHPVVRNALFCLESAWKTAQEGDHGSHVYTKALLAYAFALAGNQDKRKEVLKSLNEEAVKKDNSVHWERPQKPKAPVGHFYEPQAPSAEVEMTSYVLLAYLTAQPAPTSEDLTSATNIVKWITKQQNAQGGFSSTQDTVVALHALSKYGAATFTRTGKAAQVTIQSSGTFSSKFQVDNNNRLLLQQVSLPELPGEYSMKVTGEGCVYLQTSLKYNILPEKEEFPFALGVQTLPQTCDEPKAHTSFQISLSVSYTGSRSASNMAIVDVKMVSGFIPLKPTVKMLERSNHVSRTEVSSNHVLIYLDKVSNQTLSLFFTVLQDVPVRDLKPAIVKVYDYYETDEFAIAEYNAPCSKDLGNA
inhibition of PCP (in words) (PCP): at least partially inhibit

B2: ovostatin: "α2-Macroglobulin, ovostatin, and fetal bovine serum appear to at least partially inhibit PCP activity" (protein, UniProt P20740 37-1473, looked up)
Ovostatin: KEPEPQYVLMVPAVLQSDSPSQVCLQFFNLNQTISVRVVLEYDTINTTIFEKNTTTSNGLQCLNFMIPPVTSVSLAFISFTAKGTTFDLKERRSVMIWNMESFVFVQTDKPIYKPGQSVMFRVVALDFNFKPVQEMYPLIAVQDPQNNRIFQWQNVTSEINIVQIEFPLTEEPILGNYKIIVTKKSGERTSHSFLVEEYVLPKFDVTVTAPGSLTVMDSELTVKICAVYTYGQPVEGKVQLSVCRDFDSYGRCKKSPVCQSFTKDLDTDGCLSHILSSKVFELNRIGYKRNLDVKAIVTEKEQVCNLTATQSISITQVMSSLQFENVDHHYRRGIPYFGQIKLVDKDNSPISNKVIQLFVNNKNTHNFTTDINGIAPFSIDTSKIFDPELSLKALYKTSDQCHSEGWIEPSYPDASLSVQRLYSWTSSFVRIEPLWKDMSCGQKRMITVYYILNTEGYEHINIVNFYYVGMAKGKIVLTGEIKVNIQADQNGTFMIPLVVNEKMAPALRLLVYMLHPAKELVADSVRFSIEKCFKNKVQLQFSEKQMLTTSNVSLVIEAAANSFCAVRAVDKSMLLLKSETELSAETIYNLHPIQDLQGYIFNGLNLEDDPQDPCVSSDDIFHKGLYYRPLTSGLGPDVYQFLRDMGMKFFTNSKIRQPTVCTRETVRPPSYFLNAGFTASTHHVKLSAEVAREERGKRHILETIREFFPETWIWDIILINSTGKASVSYTIPDTITEWKASAFCVEELAGFGMSVPATLTAFQPFFVDLTLPYSIIHGEDFLVRANVFNYLNHCIKINVLLLESLDYQAKLISPEDDGCVCAKIRKSYVWNIFPKGTGDVLFSITAETNDDEACEEEALRNIRIDYRDTQIRALLVEPEGIRREETQNFLICMKDDVISQDVAIDLPTNVVEGSPRPSFSVVGDIMGTAIQNVHQLLQMPFGNGEQNMVLFAPNIYVLDYLDKTRQLSEDVKSKTIGYLVSGYQKQLSYKHPDGSYSTFGIRDKEGNTWLTAFVYKSFAEASRFIYIDDNVQAQTLIWLATKQKTDGCFQSTGILVNNAMKGGVENELSLSAYITIALLEAGHSMSHTVIRNAFYCLETASEKNITDIYTQALVAYAFCLAGKAEICESFLRELQKSAKEVDGSKYWEQNQRSAPEKSHLLDHVQSTDVEITSYVLLALLYKPNRSQEDLTKASAIVQWIIRQQNSYGGFASMQDTVVALQALAAYGAATYNSVTQNVIKINSKNTFEKVFTVNNENRLLLQQTPLPQVPGKYSLTVNGTGCVLIQTALRYNIHLPEGAFGFSLSVQTSNASCPRDQPGKFDIVLISSYTGKRSSSNMVIIDVKMLSGFVPVKSSLDQLIDDHTVMQVEYKKNHVLLYLGNILQKRRKEVTFSVEQDFVVTHPKPAPVQIYDYYETEEYAVAEYMSLCRGVVEEMG
inhibition of PCP (in words) (PCP): at least partially inhibit
